Measurements taken from the NIST ThermoML archive (doi:10.1021/je100765j).

Assay: refractive index (Na D-line) (dimensionless); xn = mol fraction of the nth substance listed
Conditions: 101 kPa, Liquid, Standard Abbe refractometry

CCC(C)Cl (stereo not drawn) [2-chlorobutane] + CC(C)OC(C)C
refractive index
Conditions	283.15 K	288.15 K	293.15 K	298.15 K	303.15 K	308.15 K	313.15 K
x1 = 0.0519	1.37477	1.37203	1.36931	1.36644	1.36361	1.36077	1.35788
x1 = 0.0988	1.37587	1.37314	1.37041	1.36756	1.36473	1.36189	1.359
x1 = 0.2006	1.37839	1.37566	1.37294	1.37009	1.36727	1.36443	1.36155
x1 = 0.3211	1.38155	1.37883	1.3761	1.37326	1.37044	1.3676	1.36473
x1 = 0.4201	1.38427	1.38154	1.37882	1.37599	1.37317	1.37033	1.36746
x1 = 0.532	1.38745	1.38472	1.38199	1.37917	1.37636	1.37353	1.37067
x1 = 0.6244	1.39016	1.38743	1.3847	1.38189	1.37908	1.37626	1.3734
x1 = 0.726	1.39324	1.39051	1.38778	1.38498	1.38218	1.37936	1.37651
x1 = 0.8163	1.39608	1.39336	1.39063	1.38784	1.38505	1.38224	1.3794
x1 = 0.8817	1.39819	1.39548	1.39275	1.38997	1.38719	1.38438	1.38154
x1 = 0.9634	1.40097	1.39825	1.39552	1.39276	1.38997	1.38716	1.38434

CC(C)CCl [1-chloro-2-methylpropane] + CC(C)OC(C)C
refractive index
Conditions	283.15 K	288.15 K	293.15 K	298.15 K	303.15 K	308.15 K	313.15 K
x1 = 0.0549	1.37495	1.37221	1.36949	1.36663	1.36379	1.36095	1.35806
x1 = 0.091	1.3759	1.37316	1.37043	1.36757	1.36474	1.36188	1.359
x1 = 0.1977	1.37869	1.37595	1.37322	1.37038	1.36754	1.36469	1.36182
x1 = 0.2934	1.38128	1.37855	1.37581	1.37298	1.37015	1.3673	1.36444
x1 = 0.3911	1.38404	1.38131	1.37857	1.37575	1.37292	1.37008	1.36723
x1 = 0.5137	1.38762	1.38488	1.38213	1.37932	1.37649	1.37365	1.37081
x1 = 0.6034	1.39034	1.3876	1.38484	1.38205	1.37922	1.37638	1.37354
x1 = 0.6769	1.39263	1.38989	1.38713	1.38435	1.38152	1.37868	1.37585
x1 = 0.8059	1.3968	1.39405	1.39129	1.38852	1.38568	1.38285	1.38003
x1 = 0.9111	1.40038	1.39764	1.39487	1.39212	1.38928	1.38645	1.38364
x1 = 0.9646	1.40226	1.39951	1.39674	1.394	1.39116	1.38833	1.38553

CC(C)(C)Cl [2-chloro-2-methylpropane] + CC(C)OC(C)C
refractive index
Conditions	283.15 K	288.15 K	293.15 K	298.15 K	303.15 K	308.15 K	313.15 K
x1 = 0.049	1.37426	1.37152	1.36878	1.36591	1.36307	1.36021	1.35731
x1 = 0.0996	1.37498	1.37223	1.36948	1.36661	1.36376	1.36089	1.35799
x1 = 0.1991	1.37645	1.37368	1.37091	1.36803	1.36516	1.36228	1.35936
x1 = 0.3212	1.37834	1.37555	1.37275	1.36986	1.36697	1.36407	1.36114
x1 = 0.4189	1.37994	1.37712	1.37431	1.3714	1.3685	1.36559	1.36263
x1 = 0.5148	1.38157	1.37874	1.3759	1.37299	1.37006	1.36713	1.36416
x1 = 0.6213	1.38348	1.38063	1.37775	1.37483	1.37189	1.36894	1.36595
x1 = 0.7152	1.38524	1.38237	1.37947	1.37654	1.37357	1.37061	1.3676
x1 = 0.8138	1.38719	1.3843	1.38137	1.37843	1.37543	1.37245	1.36942
x1 = 0.9079	1.38915	1.38623	1.38327	1.38031	1.3773	1.3743	1.37125
x1 = 0.9552	1.39016	1.38723	1.38426	1.3813	1.37827	1.37526	1.3722

CCCCCl [1-chlorobutane] + CC(C)OC(C)C
refractive index
Conditions	283.15 K	288.15 K	293.15 K	298.15 K	303.15 K	308.15 K	313.15 K
x1 = 0.0466	1.37486	1.37213	1.36941	1.36656	1.36373	1.36088	1.35801
x1 = 0.0991	1.37637	1.37364	1.37092	1.36807	1.36525	1.3624	1.35953
x1 = 0.1918	1.37915	1.37643	1.37372	1.3709	1.36808	1.36524	1.3624
x1 = 0.32	1.38331	1.38059	1.37788	1.37509	1.37227	1.36944	1.36662
x1 = 0.4199	1.38643	1.38374	1.38104	1.37827	1.37544	1.37262	1.36983
x1 = 0.516	1.38968	1.38698	1.38428	1.38153	1.37872	1.37592	1.37315
x1 = 0.623	1.39338	1.39068	1.38799	1.38527	1.38246	1.37967	1.37693
x1 = 0.7154	1.39669	1.39399	1.3913	1.38859	1.3858	1.38301	1.38028
x1 = 0.8157	1.40037	1.39768	1.39499	1.39231	1.38954	1.38677	1.38407
x1 = 0.9098	1.40395	1.40125	1.39856	1.39594	1.39315	1.3904	1.38773
x1 = 0.9559	1.40572	1.40303	1.40034	1.3977	1.39493	1.39216	1.38952
